Our source for the IC50 values is patent US20260242372A1, “NOVEL IMIDAZOPYRIDINE AND PYRAZOLOPYRIDINE SULFONAMIDE DERIVATIVES” (Hoffmann-La Roche Inc., priority 2022, published 2026).

Sequence of human GPR17 short isoform (Q13304 29-367): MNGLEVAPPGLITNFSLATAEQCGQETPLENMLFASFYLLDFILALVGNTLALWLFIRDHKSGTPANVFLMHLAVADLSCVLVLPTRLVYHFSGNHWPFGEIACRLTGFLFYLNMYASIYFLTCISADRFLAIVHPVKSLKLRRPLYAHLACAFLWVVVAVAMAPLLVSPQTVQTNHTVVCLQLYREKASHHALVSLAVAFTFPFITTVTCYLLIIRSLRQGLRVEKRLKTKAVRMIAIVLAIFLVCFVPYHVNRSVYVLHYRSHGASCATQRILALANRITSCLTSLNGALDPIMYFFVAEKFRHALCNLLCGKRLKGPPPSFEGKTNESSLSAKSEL

The test addresses human GPR17 short isoform (Homo sapiens, UniProt Q13304). Put plainly: GPR17 cAMP assay (hGPR17 cAMP, TR-FRET, antagonist mode). It counts as cell-based. Conditions: CHO-K1 cells stably expressing human GPR17 short isoform; EC80 of agonist MDL29,951; forskolin 15 μM; 30 min at room temperature. As to the method:
CHO-K1 cells stably expressing vector containing untagged human GPR17 short isoform (Roche) were cultured at 37° C./5% CO2 in DMEM (Dulbecco's Modified Eagle Medium): F-12 (1:1) supplemented with 10% foetal bovine serum and 400 μg/ml Geneticin.
Changes in intracellular cyclic adenosine monophosphate (cAMP) levels were quantified using the Nano-TRF Detection Assay kit (Roche Diagnostics, Cat. No. 05214386001). This assay allows for direct cAMP quantification in a homogeneous solution. CAMP is detected based on time-resolved fluorescence energy transfer (TR-FRET) and competitive binding of ruthenylated cAMP and endogenous cAMP to an anti-cAMP monoclonal antibody labeled with AlexaFluor-700. The Ruthenium complex serves as the FRET donor and transfers energy to AlexaFluor-700. The FRET signal is inversely proportional to the CAMP concentration.
CHO-GPR17S cells were detached with Accutase and resuspended in assay buffer consisting of Hank's Balanced Salt Solution (HBSS), 10 mM HEPES (4-(2-hydroxyethyl) piperazine-1-ethanesulfonic acid solution) and 0.1% bovine serum albumin (pH 7.4). The cells were seeded in black 384-well plates (Corning) at a density of 10′000 cells/20 μl assay buffer until the addition of compounds.
Test antagonist compounds were serially diluted in dimethyl sulfoxide (DMSO) and spotted in 384-well plates. The compounds were then diluted in HBSS buffer supplemented with an EC80 concentration of MDL29,951 (3-(2-Carboxy-4,6-dichloroindol-3-yl) propionic acid) (GPR17 agonist) plus 3-Isobutyl-1-methylxanthine (IBMX) (0.5 mM final concentration) and added to the cells at room temperature. Forskolin (15 μM final concentration) was added 5 minutes after the test compounds and the cells were incubated at room temperature for 30 minutes. The assay was stopped by adding cAMP detection mix (containing detergents for cell lysis) for 90 minutes at room temperature.
Cellular cAMP was measured using a Paradigm reader (Molecular Devices). The raw data was used to calculate the FRET signal based on the assay's P-factor as per cAMP kit instructions. The data was normalized to the maximal activity of a reference antagonist and dose response curves were fitted to the percent activity of the test compounds using a sigmoidal dose response model (Genedata Screener).
A general note: Changes in cAMP serve as a functional read-out for many G protein-coupled receptors.
Take `COc1nc(NS(=O)(=O)c2cnc3cc(Cl)ccn23)c(F)cc1OCC(F)F` [Example 51, 7-chloro-N-[5-(2,2-difluoroethoxy)-3-fluoro-6-methoxy-2-pyridyl]imidazo[1,2-a]pyridine-3-sulfonamide]: the IC50 (commonly the concentration that gives 50% inhibition) was found to be 99 nM. Then `COc1nc(NS(=O)(=O)c2cnc3nc(C4CC4)ccn23)c(F)cc1CC(F)F` [Example 36, 7-cyclopropyl-N-[5-(2,2-difluoroethyl)-3-fluoro-6-methoxy-2-pyridyl]imidazo[1,2-a]pyrimidine-3-sulfonamide], with 52 nM.

Consider `O=S(=O)(Nc1cc(F)c(OC(F)F)nc1OC(F)F)c1cnc2nc(C3CC3)ccn12` [Example 56, N-[2,6-bis(difluoromethoxy)-5-fluoro-3-pyridyl]-7-cyclopropyl-imidazo[1,2-a]pyrimidine-3-sulfonamide], for which the IC50 amounted to 132 nM. The compound `COc1c(C)ccn2c(S(=O)(=O)Nc3cc(F)c(CC#N)cc3F)cnc12` [Example 32, N-[4-(cyanomethyl)-2,5-difluoro-phenyl]-8-methoxy-7-methyl-imidazo[1,2-a]pyridine-3-sulfonamide] had an IC50 of 40 nM. Then `O=S(=O)(Nc1cc(F)c(OC(F)F)cc1F)c1cnn2cc(Br)ccc12` [Example 85, 6-bromo-N-[4-(difluoromethoxy)-2,5-difluoro-phenyl]pyrazolo[1,5-a]pyridine-3-sulfonamide], with 251 nM; and `COc1ccn2c(S(=O)(=O)Nc3cc(F)c(OCC(F)F)nc3OC)cnc2n1` [Example 37, N-[6-(2,2-difluoroethoxy)-5-fluoro-2-methoxy-3-pyridyl]-7-methoxy-imidazo[1,2-a]pyrimidine-3-sulfonamide], with 56 nM. `COc1c(C)ccn2c(S(=O)(=O)Nc3cc(F)c(C#N)cc3F)cnc12` [Example 98, N-(4-cyano-2,5-difluoro-phenyl)-8-methoxy-7-methyl-imidazo[1,2-a]pyridine-3-sulfonamide] came in with an IC50 of 819 nM.

For the compound `COc1nc(OCC(F)F)c(F)cc1NS(=O)(=O)c1cnc2n1CC[C@H](C)C2` [Example 109, (7S)—N-[6-(2,2-difluoroethoxy)-5-fluoro-2-methoxy-3-pyridyl]-7-methyl-5,6,7,8-tetrahydroimidazo[1,2-a]pyridine-3-sulfonamide], the 50% inhibitory concentration (IC50) worked out at 35 nM. The same measure for `N#CCc1cc(F)c(NS(=O)(=O)c2cnc3c(F)c(Cl)ccn23)cc1F` [Example 68, 7-chloro-N-[4-(cyanomethyl)-2,5-difluoro-phenyl]-8-fluoro-imidazo[1,2-a]pyridine-3-sulfonamide]: 329 nM; for `COc1cc(CC#N)c(F)cc1NS(=O)(=O)c1cnc2cc(C)ccn12` [Example 20, N-[4-(cyanomethyl)-5-fluoro-2-methoxy-phenyl]-7-methyl-imidazo[1,2-a]pyridine-3-sulfonamide]: 21 nM.

Turning to `COc1nc(OCC(F)F)c(F)cc1NS(=O)(=O)c1cnc2n1CCC(C(F)(F)F)C2` (stereo not drawn) [Example 41, N-[6-(2,2-difluoroethoxy)-5-fluoro-2-methoxy-3-pyridyl]-7-(trifluoromethyl)-5,6,7,8-tetrahydroimidazo[1,2-a]pyridine-3-sulfonamide], the IC50 was 66 nM.

Take `Cc1ccn2c(S(=O)(=O)Nc3cc(F)c(CC#N)cc3F)cnc2n1` [Example 76, N-[4-(cyanomethyl)-2,5-difluoro-phenyl]-7-methyl-imidazo[1,2-a]pyrimidine-3-sulfonamide]: the IC50 came to 1030 nM. This IC50 is about 16-fold higher than that of the compound before.

The compound `COc1cc(CC#N)c(F)cc1NS(=O)(=O)c1cnc2cc(C3CC3)ccn12` [Example 93, N-[4-(cyanomethyl)-5-fluoro-2-methoxy-phenyl]-7-cyclopropyl-imidazo[1,2-a]pyridine-3-sulfonamide] registered an IC50 of 4 nM. The same measure for `COc1ccn2c(S(=O)(=O)Nc3nc(OC)c(CC#N)cc3F)cnc2c1` [Example 35, N-[5-(cyanomethyl)-3-fluoro-6-methoxy-2-pyridyl]-7-methoxy-imidazo[1,2-a]pyridine-3-sulfonamide]: 46 nM; for `COc1nc(OCC(F)F)c(F)cc1NS(=O)(=O)c1cnc2n1CCC(C)C2C` (stereo not drawn) [Example 30, N-[6-(2,2-difluoroethoxy)-5-fluoro-2-methoxy-3-pyridyl]-7,8-dimethyl-5,6,7,8-tetrahydroimidazo[1,2-a]pyridine-3-sulfonamide]: 35 nM; for `COc1nc(OCC(F)F)c(F)cc1NS(=O)(=O)c1cnc2cc(OC(F)F)ccn12` [Example 5, N-[6-(2,2-difluoroethoxy)-5-fluoro-2-methoxy-3-pyridyl]-7-(difluoromethoxy)imidazo[1,2-a]pyridine-3-sulfonamide]: 8 nM. Then `COc1nc(NS(=O)(=O)c2cnn3cc(Br)ccc23)c(F)cc1CC#N` [Example 79, 6-bromo-N-[5-(cyanomethyl)-3-fluoro-6-methoxy-2-pyridyl]pyrazolo[1,5-a]pyridine-3-sulfonamide], with 20 nM. Then `COc1nc(NS(=O)(=O)c2cnc3cc(Br)ccn23)c(F)cc1OC(F)F` [Example 26, 7-bromo-N-[5-(difluoromethoxy)-3-fluoro-6-methoxy-2-pyridyl]imidazo[1,2-a]pyridine-3-sulfonamide], with 30 nM; and `COc1nc(OCC(F)F)c(F)cc1NS(=O)(=O)c1cnn2cc(C3COC3)ccc12` [Example 104, N-[6-(2,2-difluoroethoxy)-5-fluoro-2-methoxy-3-pyridyl]-6-(oxetan-3-yl)pyrazolo[1,5-a]pyridine-3-sulfonamide], with 306 nM; and `COc1nc(NS(=O)(=O)c2cnc3cc(C)ccn23)nc(OC)c1C` [Example 54, N-(4,6-dimethoxy-5-methyl-pyrimidin-2-yl)-7-methyl-imidazo[1,2-a]pyridine-3-sulfonamide], with 112 nM. Consider `COc1nc(OCC(F)F)c(F)cc1NS(=O)(=O)c1cnc2n1CC[C@@H](C)C2` [Example 108, (7R)—N-[6-(2,2-difluoroethoxy)-5-fluoro-2-methoxy-3-pyridyl]-7-methyl-5,6,7,8-tetrahydroimidazo[1,2-a]pyridine-3-sulfonamide], for which the IC50 stood at 16 nM.

For the compound `COc1nc(OCC(F)F)c(F)cc1NS(=O)(=O)c1cnc2c(F)c(Cl)ccn12` [Example 7, 7-chloro-N-[6-(2,2-difluoroethoxy)-5-fluoro-2-methoxy-3-pyridyl]-8-fluoro-imidazo[1,2-a]pyridine-3-sulfonamide], the IC50 worked out at 9 nM.

For the compound `COc1nc(OCC(F)F)c(F)cc1NS(=O)(=O)c1cnc2c(C#N)cccn12` [Example 69, 8-cyano-N-[6-(2,2-difluoroethoxy)-5-fluoro-2-methoxy-3-pyridyl]imidazo[1,2-a]pyridine-3-sulfonamide], the IC50 amounted to 393 nM. As for `COc1nc(NS(=O)(=O)c2cnc3cc(Cl)ccn23)ncc1OCCF` [Example 74, 7-chloro-N-[5-(2-fluoroethoxy)-4-methoxy-pyrimidin-2-yl]imidazo[1,2-a]pyridine-3-sulfonamide], the IC50 stood at 897 nM.

In turn, `COc1nc(OCC(F)F)c(F)cc1NS(=O)(=O)c1cnc2n1CCC(C)(C)C2` [Example 45, N-[6-(2,2-difluoroethoxy)-5-fluoro-2-methoxy-3-pyridyl]-7,7-dimethyl-6,8-dihydro-5H-imidazo[1,2-a]pyridine-3-sulfonamide] yielded an IC50 of 76 nM. Then `CCc1ccn2c(S(=O)(=O)Nc3cc(F)c(OCC(F)F)nc3OC)cnc2c1` [Example 17, N-[6-(2,2-difluoroethoxy)-5-fluoro-2-methoxy-3-pyridyl]-7-ethyl-imidazo[1,2-a]pyridine-3-sulfonamide], with 18 nM. The compound `COc1c(Cl)ccn2c(S(=O)(=O)Nc3cc(F)c(CC#N)cc3F)cnc12` [Example 61, 7-chloro-N-[4-(cyanomethyl)-2,5-difluoro-phenyl]-8-methoxy-imidazo[1,2-a]pyridine-3-sulfonamide] showed an IC50 of 181 nM. Compared with the last compound, the IC50 is about 10-fold higher.

`N#CCc1cc(F)c(NS(=O)(=O)c2cnn3cc(Br)ccc23)cc1F` [Example 92, 6-bromo-N-[4-(cyanomethyl)-2,5-difluoro-phenyl]pyrazolo[1,5-a]pyridine-3-sulfonamide]: the IC50 was 115 nM. The compound `COc1nc(NS(=O)(=O)c2cnc3nc(C4CC4)ccn23)c(F)cc1OC(F)F` [Example 97, 7-cyclopropyl-N-[5-(difluoromethoxy)-3-fluoro-6-methoxy-2-pyridyl]imidazo[1,2-a]pyrimidine-3-sulfonamide] had an IC50 of 23 nM. Compared with the last compound, the IC50 is about 5-fold lower. Then `COc1nc(NS(=O)(=O)c2cnc3cc(Br)ccn23)ncc1OCCF` [Example 91, 7-bromo-N-[5-(2-fluoroethoxy)-4-methoxy-pyrimidin-2-yl]imidazo[1,2-a]pyridine-3-sulfonamide], with 211 nM.
